Active and inactive are the calls of the source. No cut-off for these calls is given here.
Key:
[1] = biological target: Replicase polyprotein 1ab (Severe acute respiratory syndrome coronavirus 2) (UniProt P0DTD1); experiment: Inhibition of SARS-CoV-2 3CL protease at 10 uM using Dabcyl-KTSAVLQSGFRKME-Edans as a substrate preincubated for 30 mins followed by substrate addition and measured after for 4 hrs by FRET assay relative to control; settings: time 4.5 hrs
[2] = biological target: Replicase polyprotein 1ab (Severe acute respiratory syndrome coronavirus 2, UniProt P0DTD1); experiment: Inhibition of SARS-CoV-2 3CL protease using Dabcyl-KTSAVLQSGFRKME-Edans as a substrate preincubated for 30 mins followed by substrate addition and measured after for 4 hrs by FRET assay

## CCSC1=CC(=O)c2ccccc2C1=O
[1]
  inhibition: Active
[2]
  IC50: 5.35 µM

## O=C1C=C(Oc2ccccc2)C(=O)c2ccccc21
[1]
  inhibition: Active

## CC1=CC(=O)c2ccccc2C1=O
[1]
  inhibition: 40%

## CC(=O)CCC1=CC(=O)c2ccccc2C1=O
[1]
  inhibition: Active

## O=C1C=C(C2CC2)C(=O)c2ccccc21
[1]
  inhibition: Active

## O=C1C=C(C2CCC2)C(=O)c2ccccc21
[1]
  inhibition: Active

## O=C1C=C(Sc2ccccc2)C(=O)c2ccccc21
[1]
  inhibition: Active
[2]
  IC50: 0.964 µM

— ChEMBL document CHEMBL5625265, “Exploring 2-methyl-substituted vitamin K3 derivatives with potent inhibitory activity against the 3CL protease of SARS-CoV-2” (Bioorg Med Chem Lett, 2024)
